Results reported in PMC13478508 (Research, 2026).
No end group written: not given here.

Assays:
[1] = test system: hsKir6.2+maSUR1 KATP channel; assay: Whole-cell patch clamp of KATP channel currents in transfected FreeStyle 293-F cells; format: cell-based, Homo sapiens (Kir6.2) / Mesocricetus auratus (SUR1); conditions: 1 μM toxin; whole-cell patch clamp at −40 mV; 5 mM BaCl2 baseline; result in words (Fig. 1A, 3H, 5B)
Procedure: KATP constructs were transfected into FreeStyle 293-F cells using polyethylenimine at a cell density of 1 × 10^6 cells/ml. Cells were cultured in FreeStyle 293 Expression Medium with 1% fetal bovine serum for 24 h before recording. Currents were recorded using whole-cell mode at −40 mV in the pipette and an Axon-patch 200B amplifier (Axon Instruments, USA). Patch electrodes were pulled by a horizontal microelectrode puller (P-1000, Sutter Instrument Co, USA) to tip resistance of 2.0 to 3.0 MΩ. Pipette solution containing 107 mM KCl, 1.2 mM MgCl2, 1 mM CaCl2, 10 mM EGTA, 5 mM Hepes (pH 7.2, KOH), and bath solution containing 40 mM KCl, 100 mM NaCl, 2.6 mM CaCl2, 1.2 mM MgCl2, and 5 mM Hepes (pH 7.4, NaOH) were used for measuring inhibitory effect of wild-type and mutant toxins. Application of 5 mM BaCl2 in bath solution was used to block the KATP currents to determine the baseline. Data analysis was carried out using GraphPad Prism 8.0 or 10.4.0.

cryo-EM structure = target: the molecule itself; assay: cryo-EM structure

Sm3a: toxin from the centipede Scolopendra morsitans (P0DQC2.1), recombinantly expressed; novel KATP channel blocker (AKKEIPYKRQKFPKKSQCIEACANALTNGDKSKITDVKSRFYKCICYYNP; also: two disulfide bonds, pairing not given here for this toxin)
Inhibition of whole-cell KATP current [1]: strongly blocks currents

B1: human Kir6.2 (Q52E) subunit of the cleaved KATP fusion protein (natural protein)
chain: GPLSRKGIIPEEYVLTRLAEDPAKPRYRARQRRARFVSKKGNCNVAHKNIREEGRFLQDVFTTLVDLKWPHTLLIFTMSFLCSWLLFAMAWWLIAFAHGDLAPSEGTAEPCVTSIHSFSSAFLFSIEVQVTIGFGGRMVTEECPLAILILIVQNIVGLMINAIMLGCIFMKTAQAHRRAETLIFSKHAVIALRHGRLCFMLRVGDLRKSMIISATIHMQVVRKTTSPEGEVVPLHQVDIPMENGVGGNSIFLVAPLIIYHVIDANSPLYDLAPSDLHHHQDLEIIVILEGVVETTGITTQARTSYLADEILWGQRFVPIVAEEDGRYSVDYSKFGNTVKVPTPLCTARQLDEDHSLLEALTLASARGPLRKRSVPMAKAKPKFSISPDSLS
notes: also called hsKir6.2; hsKir6.2 (Q52E)
stoichiometry N (cryo-EM structure): 4
